# According to PubChem BioAssay AID493002 (Sanford-Burnham Center for Chemical Genomics, 2010):
# Test system: S. cerevisiae tim23-1 mutant growth, luminescence
# Test: tim23-1 mutant yeast growth inhibitors, dose response, luminescence, uHTS hits (AID 493002);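 further: yeast grown roughly 22 hours at 25 °C before the luminescence read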
row,Structure (SMILES),IC50
1,CC(C)(C)c1ccc(Oc2ccc(N)cc2)cc1,4.63 µM
2,O=[N+]([O-])c1cc(O)c2ncccc2c1,11.4 µM
3,c1ccc(-c2cc3ccccc3cn2)cc1,8.34 µM
4,O=C(Nc1nc2c(F)cccc2s1)c1ccco1,16.7 µM
5,CCCCCCn1c(=O)c(-c2ccccc2)c(O)c2ccccc21,8.95 µM
6,Cc1cccc(N2C(=O)c3ccc(Br)cc3C2=O)n1,12.7 µM
7,c1ccc2[nH]c(CSc3nc4ccccc4o3)nc2c1,12.3 µM
8,COCCNC(=O)/C(C#N)=C/c1ccc(OCc2ccc(F)cc2)cc1,10.5 µM
9,Cc1csc2nc(O)c(C(=O)NC3CCCCC3C)c(=O)n12 (stereo not given),12.2 µM
10,O=C(NC(=S)NC(=O)c1ccccc1F)c1ccccc1F,6.11 µM
11,Cc1ccccc1OCCCSc1nc2ccccc2[nH]1,9.44 µM
12,CCOc1cc(/C=C2\SC(N3CCCC(C)C3)=NC2=O)ccc1O (stereo not given),28.8 µM
13,O=C(/C=C/c1ccccc1)NCCc1c[nH]c2ccccc12,15 µM
14,C/C(=N\Nc1cc(N2CCCCC2)nc(C)n1)c1ccc(Br)cc1,14.2 µM
15,O=C(Nc1ccc(F)c(Cl)c1)c1ccccc1,11.5 µM
16,Oc1ccccc1-c1cc(-c2ccccc2)n[nH]1,15.8 µM
17,CC(C)c1nc(NCCO)c(C#N)c2c1CCCC2,12.4 µM
18,O=C(/C=C/c1ccccc1)Nc1ccc2c(c1)OCCO2,11.7 µM
19,CCOC(=O)c1ccc(NC(=O)/C=C/c2cccs2)cc1,26.6 µM
20,CC(C(Sc1ccccc1N)c1ccccc1)[N+](=O)[O-] (stereo not given),3.92 µM
21,NC(=S)NNc1cc(Cl)cc(Cl)c1,10.5 µM
22,Cc1cccc(OCCN2C(=O)C(=O)c3cc(C)ccc32)c1,9.52 µM
23,Nc1ccc(/C=C/C(=O)c2cccs2)cc1,4.31 µM

row,Structure (SMILES),IC50
1,COC(=O)c1ccc(NC(=O)c2nc(S(=O)(=O)Cc3cccc(C)c3)ncc2Cl)cc1,1.09 µM
2,Cc1[nH][nH]c(=O)c1C(c1ccc(-c2ccc(Cl)c(Cl)c2)o1)c1c(C)[nH][nH]c1=O,14 µM
3,O=C(Nc1ccc(Br)c(Cl)c1)c1ccco1,18.4 µM
4,C/C=C/c1ccc(OCCOc2cc(C=O)ccc2OC)c(OC)c1,8.44 µM
5,Cc1[nH][nH]c(=O)c1C(c1ccc(-c2ccc(Cl)cc2)o1)c1c(C)[nH][nH]c1=O,12.8 µM
6,COc1cc(/C=N/NC(=O)c2ccc(N)cc2)ccc1OC(=O)c1cccc(C)c1,9.83 µM
7,O=C(N/N=C/c1cccc(F)c1)c1csc2c1CCCC2,11.4 µM
8,O=C1Nc2ccccc2/C1=C/c1ccccc1Cl,7.21 µM
9,Nc1ccc2nc(SCc3ccccc3F)sc2c1,7.18 µM
10,CCN(CC)c1ccc(C(=O)Nc2cccc(F)c2)cc1,5.19 µM
11,O=C(N/N=C/C=C\c1ccco1)c1cccs1,8.95 µM
12,N=c1c2c(-c3ccccc3)c(-c3ccccc3)n(Cc3ccco3)c2ncn1Cc1ccccc1,10.9 µM
13,O=C(Nc1ccn(Cc2ccc(Cl)cc2)n1)c1ccc2c(c1)OCO2,11.1 µM
14,Cn1cccc1-c1nc2ccc(NC(=O)c3cccs3)cc2[nH]1,10.8 µM
15,O=C(N/N=C/c1coc2ccc(Cl)cc2c1=O)c1cc(O)cc(O)c1,5.83 µM
16,CCC(C)c1ccc(NC(=O)C2CC3CCC2C3)cc1 (stereo not given),12.5 µM
17,CCOC(=O)c1c(N)sc(C(=O)Nc2ccccc2)c1C,4.11 µM
18,O=C(N/N=C/c1ccc2cccnc2c1)c1ccco1,18.8 µM
19,COc1ccc(NC(=O)Nc2nc3c(s2)CCCC3)cc1,7.73 µM
20,COC(=O)c1c(-c2ccc(S(C)(=O)=O)cc2)sc2ccc(OC)cc12,12 µM
21,O=C(Nc1nc(-c2cccs2)c(-c2ccccc2)s1)c1ccco1,11.5 µM
22,COC(=O)c1cccc(NC(=O)c2ccc(OC)c(Cl)c2)c1,20.6 µM
23,O=C1NC(=S)SC1=C1CCCCCC1,7.78 µM

row,Structure (SMILES),IC50
1,Cc1[nH]c2ccccc2c1C(=O)/C=C/c1ccccc1,9.05 µM
2,Cc1ccc(-c2nc3ccccc3[nH]2)s1,6.19 µM
3,CN(C(=O)c1ccco1)c1nnc(C23CC4CC(CC(C4)C2)C3)s1,20.8 µM
4,Cc1ccc(NC(=O)CN2C(=O)CN=C(c3ccccc3)c3cc(Cl)ccc32)cc1,13.1 µM
5,COc1ccc2oc(/C=C/N(C)C)c(C(=O)c3ccc(Cl)cc3)c2c1,15 µM
6,COc1cccc(Nc2nc(-c3ccccc3)nc3ccccc23)c1,5.63 µM
7,O=C(Nc1ccc(-c2cn3c(n2)SCC3)cc1)c1ccco1,8.88 µM
8,CCN(CC)c1ccc2c(C)c(-c3ccc(N)cc3)c(=O)oc2c1,13.9 µM
9,O=C(Nc1ccc2nc(-c3ccccc3)[nH]c2c1)c1cccs1,3.62 µM
10,Cc1ccc(S(=O)(=O)N2C(=O)[C@@H]3Cc4ccccc4CN3C2=O)cc1,30.5 µM
11,COc1cccc(Nc2nc3ccc(OC)cc3s2)c1,10.1 µM
12,O=C(CC(=O)c1cc(Cl)ccc1O)c1ccccc1,7.07 µM
13,CCCn1nnc(NC(=O)c2sc3ccccc3c2Cl)n1,20.7 µM
14,Cc1cc(=O)oc2c1c(C(F)(F)F)nn2-c1ccccc1,7.85 µM
15,Cc1ccc(Nc2nc(Cl)c(C=O)s2)cc1Cl,5.76 µM
16,O=C(Nc1cccc(F)c1)N1CC=C(c2ccc(Cl)cc2)CC1,12.8 µM
17,CCN(CC)c1ccc(C(=O)N/N=C/c2ccccc2OC(F)F)cc1,15.1 µM
18,COc1cccc(C(=O)Nc2ccccc2)c1,9.33 µM
19,COc1ccc(C(=O)N/N=C\c2coc3ccc(Cl)cc3c2=O)cc1,8.27 µM
20,CCCN1C(=O)C(=O)c2cc(Cl)ccc21,19.1 µM
21,COc1ccc2c(c1)-c1nc(NC(=O)c3cccs3)sc1CC2,21.7 µM
22,CC1(C)CC(=O)C=C(c2ccc(I)cc2)C1,14.8 µM
23,O=C(Nc1ccc2nc(-c3ccc(Br)o3)[nH]c2c1)c1ccco1,5.88 µM

row,Structure (SMILES),IC50
1,O=C(NCCCc1ccccc1)Nc1cccc(Cl)c1,9.3 µM
2,COc1cccc2sc3cc(NCc4ccc5c(c4)OCO5)ccc3c(=O)c12,12.3 µM
3,COc1ccc(S(=O)(=O)CC(=O)c2cc3cccc(C)c3oc2=O)cc1,13 µM
4,N#C/C(=C\c1cc(Cl)cc(Cl)c1O)C(=O)NC1CCCCC1,10 µM
5,CCOC(=O)c1cccnc1SCc1cc(=O)n2ccccc2n1,9.96 µM
6,Cn1c(=O)c(C(=O)Nc2ccccn2)c(O)c2ccccc21,15.2 µM
7,CC(/C=N/NC(=O)c1cccs1)=C\c1ccco1,24.3 µM
8,Cc1nn(CC(=O)Nc2nc3ccccc3s2)c(C)c1[N+](=O)[O-],8.41 µM
9,O=C(N/N=C/c1coc2ccc(Cl)cc2c1=O)c1ccncc1,22.3 µM
10,Cc1cc(C(=O)CCl)c(C)n1CCc1ccc(Cl)cc1,3.7 µM
11,COc1ccc(C(=O)N/N=C/c2ccc(OC)c(COc3ccc(F)cc3F)c2)cc1,24.9 µM
12,Nc1nc(Nc2ccccc2)sc1C(=O)c1ccccc1,21 µM
13,O=c1c(O)c(-c2ccccc2)oc2cc(O)cc(O)c12,8.56 µM
14,CCCC(=O)NC(c1ccc(C(C)C)cc1)c1ccc2cccnc2c1O (stereo not given),7.2 µM
15,Cn1cc(C(=O)c2ccc(Cl)cc2)cc1-c1nc2ccccc2n1C,12.3 µM
16,CCOC(=O)/C(=C/c1ccc(OC(=O)c2ccncc2)cc1)C(C)=O,11 µM
17,CCCCn1c(N)c(N(CCC(C)C)C(=O)c2ccc3c(c2)OCO3)c(=O)[nH]c1=O,11.1 µM
18,O=C1c2ccccc2C(=O)N1c1nc(-c2cccs2)cs1,3.63 µM
19,COc1ccc(C(C[N+](=O)[O-])c2c(-c3ccccc3)cc3ccccn23)cc1OC (stereo not given),12.7 µM
20,O=C(Nc1ccc2oc(Cc3ccc(Cl)cc3)nc2c1)c1cccnc1,14.2 µM
21,CC(C)(C)c1ccc(OCC(=O)NCc2ccco2)c(Br)c1,5.94 µM
